Measured values from US11471422B2, “Stealth, targeted nanoparticles (STN) for oral drug delivery” (priority 2014, dated 2022).
Like-named read-outs stand apart in the source and are kept apart here.

How the values were obtained:
Conditions in all cases: in vivo
[1] = Percentage bioavailability vs time profile of Nutraceutical 1 from coated STN (FIG. 6)
[2] = Percentage cumulative bioavailability vs time profile of two antibiotics from coated STN (FIG. 4)
[3] = Percentage bioavailability vs time profile of anticancer drug from coated STN (FIG. 5)
Description: FIG. 5: Percentage Bioavailability vs time profile of anticancer drug (docetaxel) from coated STN indicating >90% release after 9 hr against conventional oral form with <10% bioavailability

COC1=C(OC)C(=O)C(C/C=C(\C)CC/C=C(\C)CC/C=C(\C)CC/C=C(\C)CC/C=C(\C)CC/C=C(\C)CC/C=C(\C)CC/C=C(\C)CC/C=C(\C)CCC=C(C)C)=C(C)C1=O [Coenzyme Q 10]
bioavailability at 6 hrs ([1]; oral, from coated STN, at 6 hrs): > 80% | bioavailability ([1]; conventional formulations): < 15%

CO/N=C(\C(=O)N[C@@H]1C(=O)N2C(C(=O)O)=C(CSc3nc(=O)c(=O)[nH]n3C)CS[C@H]12)c1csc(N)n1 [ceftriaxone]
bioavailability at 7 hr ([2]; po): > 100%

CC(=O)O[C@@]12CO[C@@H]1C[C@H](O)[C@@]1(C)C(=O)[C@H](O)C3=C(C)[C@@H](OC(=O)[C@H](O)[C@@H](NC(=O)OC(C)(C)C)c4ccccc4)C[C@@](O)([C@@H](OC(=O)c4ccccc4)[C@H]21)C3(C)C [docetaxel]
bioavailability at 9 hr ([3]; oral, from coated STN, after 9 hr (printed as release)): > 90% | bioavailability ([3]; conventional oral form): < 10%

CC1(C)[C@H](C(=O)O)N2C(=O)C[C@H]2S1(=O)=O [sulbactam]
bioavailability at 7 hr ([2]; from coated STN, STN oral delivery, at 7 hr, read-out: Percentage cumulative bioavailability): > 100%
